Columns and labels:
[1] = test system: totipotency genes, maternal genes and ZGA genes; test: RNA-seq analysis of specific gene sets in totipotent cell induction; type: cell-based, mouse; settings: for role in induction of totipotent stem cells (upregulation of totipotency genes, maternal genes and ZGA genes): RNA-seq, specific gene sets
NF-κB signaling = test: GO analysis and gene expression after WS6 withdrawal in ciTotiSC culture conditions; type: cell-based, mouse
From the text: WS6 is an IKK—NF-κB inhibitor that was previously shown to promote post-mitotic cell proliferation. […] Furthermore, it has been reported that downregulation of NF-κB during zygote development is critical for its totipotent state, and activation of NF-κB triggers subsequent development after ZGA (Akihiko Nishikimi, 1999; Paciolla et al. 2011). Therefore, WS6 may play a role in promoting and stabilizing induction of totipotent stem cells (ciTotiSCs), in part by inhibiting the NF-κB mediated immune response triggered by ERV activation (FIGS. 10k, j).

Wnt signaling [2] = test: GO analysis of Wnt signaling-targeted genes in ciTotiSC culture conditions; type: cell-based, mouse; settings: 1-AKP withdrawn in ciTotiSC culture conditions
From the text: (§1) Meanwhile, the inventors also observed a prolongation of the G2 phase of the cell cycle after induction of totipotent stem cells (ciTotiSCs), which was consistent with the difference between early 2C embryos and blastocysts (FIG. 10i).

[3] = test system: totipotent stem cells (ciTotiSCs); test: Cell cycle G2 phase of totipotent stem cells (ciTotiSCs); type: cell-based, mouse; settings: 1-Azakenpaullone withdrawn from ciTotiSC culture conditions
From the text: as §1

Wnt signaling [4] = settings: studies have shown; cited from earlier work

## C/C(=C\c1ccc(C(=O)O)cc1)c1ccc2c(c1)C(C)(C)CCC2(C)C [TTNPB]
[1]
  activation of totipotency, maternal and ZGA genes rich in RAR-binding motifs: could directly activate
  role in induction of totipotent stem cells (upregulation of totipotency genes, maternal genes and ZGA genes): important for the induction of totipotent stem cells

## CN1CCN(Cc2ccc(NC(=O)Cc3ccc(Oc4cc(NC(=O)C5CC5)ncn4)cc3)cc2C(F)(F)F)CC1 [WS6]
[1]
  role in induction of totipotent stem cells (upregulation of totipotency genes, maternal genes and ZGA genes): important for the induction of totipotent stem cells
NF-κB signaling; WS6 withdrawn
  expression of genes downstream of NF-κB signaling: up-regulated
NF-κB signaling; ciTotiSC culture conditions
  GO analysis of differential genes after WS6 ablation: enriched multiple innate immunity-related pathways, especially NF-κB signaling

## O=C1Cc2c([nH]c3ccc(Br)cc23)-c2ncccc2N1 [1-Azakenpaullone]
[1]
  role in induction of totipotent stem cells (upregulation of totipotency genes, maternal genes and ZGA genes): important for the induction of totipotent stem cells
Wnt signaling [2]
  specific Wnt signaling-targeted genes after withdrawal: not up-regulated
[3]
  G2 phase prolongation of ciTotiSCs after withdrawal: reduced
Wnt signaling [4]
  Wnt signaling downstream gene expression and cell cycle arrest: induces specific Wnt signaling downstream gene expression and G2/M arrest simultaneously

## Cc1ccc(C2=CCC(C)(C)c3ccc(C#Cc4ccc(C(=O)O)cc4)cc32)cc1 [AGN193109]
[1]; in the presence of AGN193109
  gene induction in the presence of the RA antagonist: could not be induced

From US20250263669A1, “INDUCED TOTIPOTENT STEM CELLS AND PREPARATION METHOD THEREFOR” (TSINGHUA UNIVERSITY, priority 2021, published 2025)
